In BindingDB's records for doi:10.1016/0960-894X(95)00059-3 (1995):

Key:
[1] = Inhibitory activity against HIV-1 RT with poly.rC-oligo.dG template primer
[2] = biological target: Reverse transcriptase (Human immunodeficiency virus 2); assay: Inhibitory activity against HIV-2 reverse transcriptase

| Compound | IC50 [1] [nM] | IC50 [2] [nM] |
| --- | --- | --- |
| O=S(=O)(c1ccccc1)c1c(-c2nc3c([nH]2)CCCC3)[nH]c2ccc(Cl)cc12 [2-(3-Benzenesulfonyl-5-chloro-1H-indol-2-yl)-4,5,6,7-tetrahydro-1H-benzoimidazole] | 8.1 |  |
| O=S(=O)(c1ccccc1)c1c(C2=NCCCN2)[nH]c2ccc(Cl)cc12 [3-Benzenesulfonyl-5-chloro-2-(1,4,5,6-tetrahydro-pyrimidin-2-yl)-1H-indole] | 2290 |  |
| CCc1nc(-c2[nH]c3ccc(Cl)cc3c2S(=O)(=O)c2ccccc2)[nH]c1CC [3-Benzenesulfonyl-5-chloro-2-(4,5-diethyl-1H-imidazol-2-yl)-1H-indole] | 10 |  |
| O=S(=O)(c1ccccc1)c1c(C2=NCCS2)[nH]c2ccc(Cl)cc12 [3-Benzenesulfonyl-5-chloro-2-(4,5-dihydro-thiazol-2-yl)-1H-indole] | 17 | > 300000 |
| Cc1nc(-c2[nH]c3ccc(Cl)cc3c2S(=O)(=O)c2ccccc2)[nH]c1C [3-Benzenesulfonyl-5-chloro-2-(4,5-dimethyl-1H-imidazol-2-yl)-1H-indole] | 5.1 | > 300000 |
| CC1(C)CN=C(c2[nH]c3ccc(Cl)cc3c2S(=O)(=O)c2ccccc2)N1 [3-Benzenesulfonyl-5-chloro-2-(5,5-dimethyl-4,5-dihydro-1H-imidazol-2-yl)-1H-indole] | 50 |  |
| O=S(=O)(c1ccccc1)c1c(-n2ccnc2)[nH]c2ccc(Cl)cc12 [3-Benzenesulfonyl-5-chloro-2-imidazol-1-yl-1H-indole] | 2380 |  |
| O=S(=O)(c1ccccc1)c1c(C2=N[C@H]3CCCC[C@@H]3N2)[nH]c2ccc(Cl)cc12 [(3aS,7aS)-2-(3-Benzenesulfonyl-5-chloro-1H-indol-2-yl)-3a,4,5,6,7,7a-hexahydro-1H-benzoimidazole] | 29 |  |
